For orientation: IC50 means the concentration that gives 50% inhibition. A higher IC50 goes with weaker potency in that assay.

The target in this assay is T1, Prostaglandin G/H synthase 1 (Ovis aries, UniProt P05979).
T1 sequence (P05979 whole entry): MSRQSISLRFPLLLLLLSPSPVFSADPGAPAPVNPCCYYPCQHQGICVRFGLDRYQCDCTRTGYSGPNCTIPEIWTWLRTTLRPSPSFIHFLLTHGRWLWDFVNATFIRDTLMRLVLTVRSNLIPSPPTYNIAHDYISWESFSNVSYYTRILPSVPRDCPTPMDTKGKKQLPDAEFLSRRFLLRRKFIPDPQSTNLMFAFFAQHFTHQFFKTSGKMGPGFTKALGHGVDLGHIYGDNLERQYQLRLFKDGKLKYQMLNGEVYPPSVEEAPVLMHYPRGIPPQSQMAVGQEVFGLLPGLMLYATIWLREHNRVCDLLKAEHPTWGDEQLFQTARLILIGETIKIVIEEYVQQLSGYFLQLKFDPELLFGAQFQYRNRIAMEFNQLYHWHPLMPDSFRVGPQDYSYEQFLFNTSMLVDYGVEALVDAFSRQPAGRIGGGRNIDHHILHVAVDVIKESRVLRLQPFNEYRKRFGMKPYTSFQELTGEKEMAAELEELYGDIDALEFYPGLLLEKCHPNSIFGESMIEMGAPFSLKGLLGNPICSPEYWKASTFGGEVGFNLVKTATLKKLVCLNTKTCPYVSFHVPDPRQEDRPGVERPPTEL
Nature of the assay: Inhibition of Ovis aries (sheep) COX1 using arachidonic acid as substrate using cyclic naphthalene hydrazide by chemiluminescence assay.

For `CS(=O)(=O)c1ccc(-c2nc3c(n2-c2ccccc2)CCCC3)cc1`, the half-inhibitory concentration (IC50) was 56.5 µM. With `CS(=O)(=O)c1ccc(-c2nc3c(n2-c2ccc(F)cc2)CCCC3)cc1` the figure was 55.7 µM; with `CS(=O)(=O)c1ccc(-c2nc3c(n2-c2ccc(Cl)cc2)CCCC3)cc1`, 61.6 µM.

As to `Cc1ccc(-n2c(-c3ccc(S(C)(=O)=O)cc3)nc3c2CCCC3)cc1`, inhibition was half-maximal at 40.1 µM (IC50). With `COc1ccc(-n2c(-c3ccc(S(C)(=O)=O)cc3)nc3c2CCCC3)cc1` the figure was 42.2 µM; with `CC(=O)Nc1ccc(-n2c(-c3ccc(S(C)(=O)=O)cc3)nc3c2CCCC3)cc1`, 36.1 µM.

For the origin of these results see ChEMBL document CHEMBL3046285, “Design and synthesis of new 1,2-diaryl-4,5,6,7-tetrahydro-1H-benzo[d] imidazoles as selective cyclooxygenase (COX-2) inhibitors” (Med Chem Res, 2012).
